The target in one assay is Chemokine CXCR2 (IL-8B) (Homo sapiens, UniProt P25025). Kind of assay: Pharmacological profile: receptor binding assay. The source says:
(§1) Table 1 Pharmacological profile of SM-345431 (part 1) | column: IC50 (μm)

For another assay, the target named is Chemokine CCR1 (Homo sapiens, UniProt P32246). Briefly: Pharmacological profile: receptor binding assay.
From the text: as §1

For another assay, the target named is T1, semaphorin3A (Homo sapiens, UniProt Q14563).
T1 sequence (Q14563 21-771): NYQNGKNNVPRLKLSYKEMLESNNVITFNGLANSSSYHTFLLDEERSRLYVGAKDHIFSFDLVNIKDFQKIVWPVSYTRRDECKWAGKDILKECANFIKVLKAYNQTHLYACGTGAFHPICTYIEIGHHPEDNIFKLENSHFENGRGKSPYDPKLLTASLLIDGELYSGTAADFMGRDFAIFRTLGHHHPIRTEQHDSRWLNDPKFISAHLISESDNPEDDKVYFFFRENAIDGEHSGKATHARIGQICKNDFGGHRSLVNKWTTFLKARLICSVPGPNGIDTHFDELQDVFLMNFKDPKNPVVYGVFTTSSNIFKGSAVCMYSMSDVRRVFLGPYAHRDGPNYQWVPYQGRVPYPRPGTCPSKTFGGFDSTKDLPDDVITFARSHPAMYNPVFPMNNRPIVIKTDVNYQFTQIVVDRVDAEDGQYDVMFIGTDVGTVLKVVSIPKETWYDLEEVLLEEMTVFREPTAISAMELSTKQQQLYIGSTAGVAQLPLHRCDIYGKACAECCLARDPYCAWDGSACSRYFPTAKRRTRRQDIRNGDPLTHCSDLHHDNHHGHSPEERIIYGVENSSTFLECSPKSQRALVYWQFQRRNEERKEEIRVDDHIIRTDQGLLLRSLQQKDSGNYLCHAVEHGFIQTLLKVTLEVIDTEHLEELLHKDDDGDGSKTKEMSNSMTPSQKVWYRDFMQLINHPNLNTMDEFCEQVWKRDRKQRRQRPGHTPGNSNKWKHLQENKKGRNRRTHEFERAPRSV
Kind of assay: Growth cone collapse assay, E14 rat DRG. Particulars: read-out: semaphorin3A inhibiting activity, IC50. It is filed as cell-based. How it is done: The growth cone collapse assay and collagen co-culture experiments were performed as previously described. To examine the effects of SM-345431-silicone, small pieces (2 × 1 × 0.3 mm; approximately 1 mg containing 1 μg of SM-345431) of the SM-345431-silicone or control-silicone were placed in a collagen gel adjacent to E8 chick DRGs and COS7 cell aggregates, as shown in Figure 1C.

Another assay concerns SCT adult rats. Kind of assay: Kinematic analysis of hindlimb motor performance on a treadmill. It is filed as in vivo, rat. How it is done:
Rats were randomly divided into the following three experimental groups: 1) untrained + placebo, 2) untrained + SM-345431 and 3) trained + SM-345431. SCT was performed, and SM-345431 or placebo was administered at the lesion site via the newly developed DDS, which is described in detail below. Starting 1 week post-injury, treadmill training commenced with a BSS. Kinematic tests were performed monthly for 3 months after SCT using a rodent robotic device (Rodent robot 3000, Robomedica Inc.) that primarily assessed the performance of plantar stepping on a treadmill. Treadmill training was continued throughout the experimental period.
A robotic device (rodent robot 3000, Robomedica Inc.) was used to train the SCT rats. Briefly, the device consisted of a computer-controlled BSS, two lightweight robotic arms and a treadmill with variable motorized speeds. The ankles of the hindlimbs of rats were held with a pair of releasable rope cuffs, which were then secured to robotic arms to track ankle trajectory in the horizontal and vertical directions. A computer-controlled body support arm was used to control the load that was applied to the hindlimbs and to maintain body equilibrium. Rats were secured in a cloth vest and attached to the body support arm with a hook-and-loop fabric. Hard rope cuffs were attached to the hindlimbs of rats with the robotic arm during training.
Additionally, improvements in motor performance were more obvious when the treadmill training was initiated at earlier time points after SCT. Therefore, training was initiated as early as 1 week after SCT. The fixed parameters were set at 50% body weight support (BWS), 20 min/day and 5 days/week. The animals were adapted to the training via increasing velocity; a velocity of 1 cm/s was used in the first week, and then the velocity was increased by 2 cm/s every 2 weeks for the first 2 months after injury (i.e., 1 cm/s to 3 cm/s to 5 cm/s). […] Once the rats dragged their hindlimbs and stopped walking on the treadmill, a trainer brought their bodies back to the original walking position. The step ability of SCT rats on the treadmill improved gradually over the course of the first 2 months following injury. However, this improvement was attenuated at time points later than 2 months after injury.
To evaluate the locomotor capability of SCT rats in detail, the aforementioned robotic device was employed. Each robotic arm tracked the two-dimensional movement of the ankle, and the trajectory of the ankle movement was then recorded on a computer for kinematic analyses. Not all the rats were able to walk by themselves on the treadmill by the last time point of the experiment. Therefore, when performing the tests, the degree of BWS and treadmill speed were titrated to obtain the maximum walking performance on the treadmill. As a result of this titration, the behavioral tests were performed at 70% BWS and a treadmill velocity of 1 cm/s each month after SCT. The duration of testing was 1 min per rat to minimize training effects during testing. The methods of previous reports were followed with slight adaptations. Briefly, the ankle trajectory in each plane was recorded by the robotic arm and a computer. Then, the toe off (TO) and paw contact (PC) events in each step cycle were identified using Rodent Robot 3000 software. All kinematic characteristics were obtained when TO and PC were identified; as a result, parameters such as the duration phase, the swing phase of the step cycle and the length and height of the step were calculated. The number of animals used in these behavioral tests was 32 (control: n = 9, SM-345431: n = 12, combined: n = 11).

Assay [1] deals with Adhesion, ICAM-1-Mediated. Briefly: Pharmacological profile: cell adhesion. The format is cell-based.
From the text: as §1

Assay [2] deals with Adhesion, fibronectin-mediated. Kind of assay: Pharmacological profile: cell adhesion. It is filed as cell-based.
From the text: as §1

Assay [3] relates to Adhesion, VCAM-1-Mediated. Briefly: Pharmacological profile: cell adhesion. It is filed as cell-based.
From the text: as §1

A further assay concerns Mediator release, IL-6. Kind of assay: Pharmacological profile: mediator release. It is filed as cell-based.
From the text: as §1

Another assay concerns Mediator release, IL-5. Briefly: Pharmacological profile: mediator release. The format is cell-based.
From the text: as §1

The next assay relates to Mediator release, IL-4. Kind of assay: Pharmacological profile: mediator release. The format is cell-based.
From the text: as §1

For assay [4], the system named is Mediator release, IL-1beta. Kind of assay: Pharmacological profile: mediator release. The format is cell-based.
From the text: as §1

In the next assay the test system is Mediator release, IL-2. Kind of assay: Pharmacological profile: mediator release. The format is cell-based.
From the text: as §1

The subject of assay [5] is Mediator release, TNF-alfa, PBML. Briefly: Pharmacological profile: mediator release. The format is cell-based.
From the text: as §1

[6] abbreviates: SM-345431 alone, 70% BWS, 1 cm/s.

Results on 1 molecule are retold here after article PMC4008261, “Rewiring of regenerated axons by combining treadmill training with semaphorin3A inhibition” (Molecular Brain, 2014).

Bounds are passed on as bounds.

One may read the IC50 as the concentration needed to halve the response being measured.

Chain of Chemokine CXCR2 (IL-8B) (P25025 whole entry): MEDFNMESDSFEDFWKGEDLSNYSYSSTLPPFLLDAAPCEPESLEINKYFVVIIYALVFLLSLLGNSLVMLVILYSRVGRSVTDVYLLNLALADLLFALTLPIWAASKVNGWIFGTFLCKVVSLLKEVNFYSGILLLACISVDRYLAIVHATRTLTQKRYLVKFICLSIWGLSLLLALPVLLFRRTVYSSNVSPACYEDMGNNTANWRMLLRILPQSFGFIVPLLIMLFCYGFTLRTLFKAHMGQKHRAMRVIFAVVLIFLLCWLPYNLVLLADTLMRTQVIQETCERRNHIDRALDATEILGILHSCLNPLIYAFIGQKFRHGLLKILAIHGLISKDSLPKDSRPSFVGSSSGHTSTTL
Chain of Chemokine CCR1 (P32246 whole entry): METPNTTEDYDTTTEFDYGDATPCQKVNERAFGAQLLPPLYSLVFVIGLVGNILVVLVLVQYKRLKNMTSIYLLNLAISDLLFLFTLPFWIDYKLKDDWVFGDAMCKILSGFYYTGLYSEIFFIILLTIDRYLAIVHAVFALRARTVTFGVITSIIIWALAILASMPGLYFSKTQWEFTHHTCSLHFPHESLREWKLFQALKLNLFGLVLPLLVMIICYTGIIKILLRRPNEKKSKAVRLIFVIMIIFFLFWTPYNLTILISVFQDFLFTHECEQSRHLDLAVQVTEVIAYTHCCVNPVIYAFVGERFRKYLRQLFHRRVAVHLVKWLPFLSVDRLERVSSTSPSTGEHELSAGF

In the case of `CC(=O)c1cc2c(=O)c3c(C(=O)O)c(O)c(O)cc3oc2c(C(C)=O)c1-c1coc2cc(O)c(O)c(C(=O)O)c2c1=O` [SM-345431, Vinaxanthone], the IC50 on Chemokine CXCR2 (IL-8B) is above 10 µM; on Chemokine CCR1, above 10 µM; on semaphorin3A, 100 to 200 nM; in assay [1] it was above 10 µM; in assay [2], above 10 µM; in assay [3], above 10 µM. In addition, the IC50 is above 10 µM with Mediator release, IL-6; above 10 µM in the assay with Mediator release, IL-5; above 10 µM in the assay on Mediator release, IL-4; above 10 µM in [4]; above 10 µM with Mediator release, IL-2; above 10 µM in assay [5]. In the assay on SCT adult rats (SM-345431 alone, without extensive treadmill training), the “plantar step walking on a treadmill with the BSS” value was “did not result in plantar step walking”. In addition, the “effect on the step height parameter” value in the assay with SCT adult rats (setting [6]) is “moderate and statistically insignificant”. For the same molecule, in the assay on SCT adult rats (setting [6]), the “locomotor function on a treadmill, step length parameters (average and maximum)” value is given as “improved locomotor function”. Moreover, the “step cycle area versus control SCT rats” value was “statistically significant enhancement” in the assay with SCT adult rats (SM-345431 alone, P < 0.05 at 3 months); “even greater improvement” in the assay with SCT adult rats (SM-345431 combined with treadmill training, P < 0.05 first month, P < 0.01 second and third month). Further, the “effect on the step height parameter (average and maximum)” value with SCT adult rats (SM-345431 combined with extensive treadmill training) is “greater enhancement was observed”. The “duration of continuous plantar step walking on a treadmill with the BSS” value in the assay on SCT adult rats (SM-345431 combined with extensive treadmill training, all rats) is on record as “at least 30 min”.
